In general, MIC refers to the least concentration at which growth counts as inhibited. The inhibition is the share of the control response that was lost under treatment.

Active and inactive are the calls of the source. No cut-off for these calls is given here.

Consider five compounds from ChEMBL document CHEMBL5331051, “Cationic, amphipathic small molecules based on a triazine-piperazine-triazine scaffold as a new class of antimicrobial agents” (Eur J Med Chem, 2022).

For series [1], the system named is Staphylococcus aureus. The experiment in a line: Potency index, ratio of melittin MIC to test compound MIC against methicillin-resistant Staphylococcus aureus CCARM 3095 assessed as bacterial growth inhibition measured at 18 to 24 hrs by microdilution assay. The following applies: time 18-24 hrs. Format: functional. (In general: Dilution methods test growth across graded concentrations, often in twofold steps.)

Series [2] concerns Staphylococcus aureus. Briefly: Potency index, ratio of melittin MIC to test compound MIC against methicillin-resistant Staphylococcus aureus CCARM 3089 assessed as bacterial growth inhibition measured at 18 to 24 hrs by microdilution assay. Format: functional. The note with it: time 18-24 hrs.
In series [3] the test system is Staphylococcus aureus. Briefly: Synergistic antibacterial activity against multidrug-resistant Staphylococcus aureus CCARM 3089 strain assessed as fractional inhibitory concentration index in presence of chloramphenicol by checkerboard assay. Format: functional.
For series [4], the system named is Staphylococcus aureus. Briefly: Synergistic antibacterial activity against methicillin-resistant Staphylococcus aureus CCARM 3089 strain assessed as bacterial growth inhibition in presence of chloramphenicol by checkerboard assay. Format: functional.
In series [5] the test system is Staphylococcus aureus. The experiment in a line: Synergistic antibacterial activity against methicillin-resistant Staphylococcus aureus CCARM 3089 strain assessed as bacterial growth inhibition in presence of ciprofloxacin by checkerboard assay. Format: functional.
In series [6] the test system is Staphylococcus aureus. The experiment in a line: Potency index, ratio of melittin MIC to test compound MIC against methicillin-resistant Staphylococcus aureus CCARM 3090 assessed as bacterial growth inhibition measured at 18 to 24 hrs by microdilution assay. Format: functional. The following applies: time 18-24 hrs.
The test system of series [7] is Staphylococcus aureus. Briefly: Synergistic antibacterial activity against methicillin-resistant Staphylococcus aureus CCARM 3089 strain assessed as fractional inhibitory concentration in presence of chloramphenicol by checkerboard assay. Format: functional.
For series [8], the system named is Staphylococcus aureus. The experiment in a line: Additive antibacterial activity against multidrug-resistant Staphylococcus aureus CCARM 3089 strain assessed as chloramphenicol fractional inhibitory concentration by checkerboard assay. Format: functional.
For series [9], the system named is Staphylococcus aureus. Briefly: Synergistic antibacterial activity against multidrug-resistant Staphylococcus aureus CCARM 3089 strain assessed as chloramphenicol fractional inhibitory concentration by checkerboard assay. Format: functional.
The subject of series [10] is Staphylococcus aureus. Briefly: Antibacterial activity against Staphylococcus aureus KCTC 1621 strain assessed as bacterial growth inhibition measured at 18 to 24 hrs in presence of 4.5 mM KCl by microdilution assay. Format: functional. The note with it: time 18-24 hrs.
Series [11] concerns Staphylococcus aureus. Briefly: Synergistic antibacterial activity against methicillin-resistant Staphylococcus aureus CCARM 3089 strain assessed as chloramphenicol MIC by checkerboard assay. Format: functional.
Series [12] has as its system Pseudomonas aeruginosa. The experiment in a line: Additive antibacterial activity against multidrug-resistant Pseudomonas aeruginosa CCARM 2095 strain assessed as fractional inhibitory concentration index in presence of oxacillin by checkerboard assay. Format: functional.
Series [13] has as its system Pseudomonas aeruginosa. Briefly: Antibacterial activity against multidrug-resistant Pseudomonas aeruginosa CCARM 2095 strain assessed as chloramphenicol MIC by checkerboard assay. Format: functional.
Series [14] concerns Staphylococcus aureus. The experiment in a line: Additive antibacterial activity against multidrug-resistant Staphylococcus aureus CCARM 3089 strain assessed as fractional inhibitory concentration index in presence of ciprofloxacin by checkerboard assay. Format: functional.
Series [15] relates to Pseudomonas aeruginosa. The experiment in a line: Additive antibacterial activity against multidrug-resistant Pseudomonas aeruginosa CCARM 2095 strain assessed as oxacillin fractional inhibitory concentration by checkerboard assay. Format: functional.
Series [16] deals with Pseudomonas aeruginosa. Briefly: Additive antibacterial activity against multidrug-resistant Pseudomonas aeruginosa CCARM 2095 strain assessed as fractional inhibitory concentration in presence of oxacillin by checkerboard assay. Format: functional.
The subject of series [17] is Pseudomonas aeruginosa. The experiment in a line: Antibacterial activity against multidrug-resistant Pseudomonas aeruginosa CCARM 2095 strain assessed as bacterial growth inhibition by checkerboard assay. Format: functional.
In series [18] the test system is Staphylococcus aureus. Briefly: Additive antibacterial activity against methicillin-resistant Staphylococcus aureus CCARM 3089 strain assessed as ciprofloxacin MIC by checkerboard assay. Format: functional.
The subject of series [19] is Staphylococcus aureus. The experiment in a line: Additive antibacterial activity against methicillin-resistant Staphylococcus aureus CCARM 3089 strain assessed as bacterial growth inhibition in presence of ciprofloxacin by checkerboard assay. Format: functional.
In series [20] the test system is Pseudomonas aeruginosa. Briefly: Additive antibacterial activity against multidrug-resistant Pseudomonas aeruginosa CCARM 2095 strain assessed as Oxacillin MIC by checkerboard assay. Format: functional.
The test system of series [21] is Pseudomonas aeruginosa. The experiment in a line: Additive antibacterial activity against multidrug-resistant Pseudomonas aeruginosa CCARM 2095 strain assessed as bacterial growth inhibition in presence of oxacillin by checkerboard assay. Format: functional.
For series [22], the system named is Pseudomonas aeruginosa. The experiment in a line: Antibacterial activity against multidrug-resistant Pseudomonas aeruginosa CCARM 2095 strain assessed as fractional inhibitory concentration by checkerboard assay. Format: functional.
Series [23] relates to Pseudomonas aeruginosa. Briefly: Synergistic bactericidal activity against multidrug-resistant Pseudomonas aeruginosa CCARM 2095 at 0.5 times MIC measured after 60 mins in presence of 0.5 times MIC of chloramphenicol by time-kill kinetics assay. Format: functional, organism-based.
Series [24] relates to Pseudomonas aeruginosa. The experiment in a line: Antibiofilm activity against multidrug-resistant Pseudomonas aeruginosa assessed as bacterial growth inhibition at 1 ug/ml relative to control. Format: functional.
A short description of series [25]: Drug localization in Escherichia coli KCTC 1682 cytoplasm incubated for 0.5 hrs by CDFA based confocal laser scanning microscopic analysis. Format: ADME, subcellular.
In series [26] the test system is Pseudomonas aeruginosa. The experiment in a line: Synergistic bactericidal activity against multidrug-resistant Pseudomonas aeruginosa CCARM 2095 at 0.5 times MIC measured after 60 mins in presence of 0.5 times MIC of ciprofloxacin by time-kill kinetics assay. Format: functional, organism-based.
In series [27] the test system is Pseudomonas aeruginosa. Briefly: Antibiofilm activity against multidrug-resistant Pseudomonas aeruginosa assessed as bacterial growth inhibition at 8 ug/ml relative to control. Format: functional.
Series [28] concerns Pseudomonas aeruginosa. Briefly: Bacteriostatic activity against multidrug-resistant Pseudomonas aeruginosa CCARM 2095 measured after 24 hrs by time-kill kinetics assay. Format: functional, organism-based.
Series [29] has as its system Pseudomonas aeruginosa. Briefly: Additive antibacterial activity against multidrug-resistant Pseudomonas aeruginosa CCARM 2095 strain assessed as ciprofloxacin MIC by checkerboard assay. Format: functional.
In series [30] the test system is Staphylococcus aureus. The experiment in a line: Antibacterial activity against multidrug-resistant Staphylococcus aureus CCARM 3089 strain assessed as fractional inhibitory concentration index in presence of ciprofloxacin by checkerboard assay. Format: functional.
The subject of series [31] is Staphylococcus aureus. Briefly: Additive antibacterial activity against methicillin-resistant Staphylococcus aureus CCARM 3089 strain assessed as oxacillin MIC by checkerboard assay. Format: functional.
In series [32] the test system is Pseudomonas aeruginosa. The experiment in a line: Additive antibacterial activity against multidrug-resistant Pseudomonas aeruginosa CCARM 2095 strain assessed as chloramphenicol fractional inhibitory concentration by checkerboard assay. Format: functional.
The test system of series [33] is Pseudomonas aeruginosa. The experiment in a line: Additive antibacterial activity against multidrug-resistant Pseudomonas aeruginosa CCARM 2095 strain assessed as bacterial growth inhibition in presence of chloramphenicol by checkerboard assay. Format: functional.
Series [34] relates to Pseudomonas aeruginosa. The experiment in a line: Additive antibacterial activity against multidrug-resistant Pseudomonas aeruginosa CCARM 2095 strain assessed as bacterial growth inhibition by checkerboard assay. Format: functional.
The test system of series [35] is Pseudomonas aeruginosa. The experiment in a line: Additive antibacterial activity against multidrug-resistant Pseudomonas aeruginosa CCARM 2095 strain assessed as fractional inhibitory concentration in presence of chloramphenicol by checkerboard assay. Format: functional.
Series [36] deals with Pseudomonas aeruginosa. The experiment in a line: Additive antibacterial activity against multidrug-resistant Pseudomonas aeruginosa CCARM 2095 strain assessed as ciprofloxacin fractional inhibitory concentration by checkerboard assay. Format: functional.
The subject of series [37] is Pseudomonas aeruginosa. Briefly: Additive antibacterial activity against multidrug-resistant Pseudomonas aeruginosa CCARM 2095 strain assessed as fractional inhibitory concentration in presence of ciprofloxacin by checkerboard assay. Format: functional.
Series [38] deals with Staphylococcus aureus. Briefly: Antibacterial activity against multidrug-resistant Staphylococcus aureus CCARM 3089 strain assessed as ciprofloxacin fractional inhibitory concentration by checkerboard assay. Format: functional.
Series [39] deals with Pseudomonas aeruginosa. The experiment in a line: Additive antibacterial activity against multidrug-resistant Pseudomonas aeruginosa CCARM 2095 strain assessed as fractional inhibitory concentration index in presence of chloramphenicol by checkerboard assay. Format: functional.
Series [40] deals with Staphylococcus aureus. Briefly: Antibacterial activity against multidrug-resistant Staphylococcus aureus CCARM 3089 strain assessed as fractional inhibitory concentration by checkerboard assay. Format: functional.
Series [41] deals with Pseudomonas aeruginosa. Briefly: Additive antibacterial activity against multidrug-resistant Pseudomonas aeruginosa CCARM 2095 strain assessed as chloramphenicol MIC by checkerboard assay. Format: functional.

`NCCCN(CCCN)c1nc(NCc2ccccc2)nc(N2CC(Cc3ccccc3)N(c3nc(NCc4ccccc4)nc(N(CCCN)CCCN)n3)CC2Cc2ccccc2)n1` (stereo unspecified): the Ratio in the series with Staphylococcus aureus [1], with Staphylococcus aureus [2] and in the series on Staphylococcus aureus [6] was 2 throughout. Further, the “fractional inhibitory concentration index (FICI)” value in the series with Staphylococcus aureus [3] amounted to 0.5. Moreover, the MIC came out at 1 µg/mL with Staphylococcus aureus [4], 1 µg/mL with Staphylococcus aureus [5], 2.5 µM with Staphylococcus aureus [10] and 128 µg/mL in the series with Staphylococcus aureus [11]. Besides, the figures for the FIC in the series on Staphylococcus aureus [7], with Staphylococcus aureus [8] and with Staphylococcus aureus [9] were 0.5, 0.25 and 0.25, respectively.
`NCCCCNc1nc(NCCCCN)nc(N2CC(Cc3ccccc3)N(c3nc(NCCCCN)nc(NCCCCN)n3)CC2Cc2ccccc2)n1` (stereo unspecified): the MIC was 1 µg/mL in the series with Staphylococcus aureus [5] and 5.2 µM in the series on Staphylococcus aureus [10].
For `NCCNc1nc(NCCN)nc(N2CC(Cc3ccccc3)N(c3nc(NCCN)nc(NCCN)n3)CC2Cc2ccccc2)n1` (stereo unspecified), the “fractional inhibitory concentration index (FICI)” value in the series on Pseudomonas aeruginosa [12] was 1; in the series on Staphylococcus aureus [14], 0.75. Further, the minimum inhibitory concentration (MIC) in the series with Pseudomonas aeruginosa [13] is 256 µg/mL; with Pseudomonas aeruginosa [17] it was 16 µg/mL; in the series on Staphylococcus aureus [18] it was 128 µg/mL; in the series with Staphylococcus aureus [19], 16 µg/mL; with Pseudomonas aeruginosa [20], 512 µg/mL; in the series with Pseudomonas aeruginosa [21], 8 µg/mL. The minimum inhibitory concentration (MIC) in the series with Staphylococcus aureus [10] was 6.1 µM. For the same compound, the FIC is on record as 0.5 with Pseudomonas aeruginosa [15], 0.5 in the series with Pseudomonas aeruginosa [16] and 0.25 in the series on Pseudomonas aeruginosa [22].
In the case of `NCCN(CCN)c1nc(NCc2ccccc2)nc(N2CC(Cc3ccccc3)N(c3nc(NCc4ccccc4)nc(N(CCN)CCN)n3)CC2Cc2ccccc2)n1` (stereo unspecified), the Ratio in the series with Staphylococcus aureus [1], in the series on Staphylococcus aureus [2] and with Staphylococcus aureus [6] was 2 each time. The “fractional inhibitory concentration index (FICI)” value in the series on Staphylococcus aureus [3] stood at 0.5. Further, the outcome with Pseudomonas aeruginosa [23] and with Pseudomonas aeruginosa [26] was Active. Further, the MIC in the series on Staphylococcus aureus [4] turned out to be 2 µg/mL; in the series on Staphylococcus aureus [5] it was 1 µg/mL; in the series with Staphylococcus aureus [10], 5.4 µM; in the series on Staphylococcus aureus [11] it was 128 µg/mL. The inhibition at 1 µg/mL in the series on Pseudomonas aeruginosa [24] amounted to 50%. Also, in series [25], the Drug uptake result is on record as “Active”. The inhibition at 8 µg/mL in the series on Pseudomonas aeruginosa [27] was 100%. Besides, the FIC in the series with Staphylococcus aureus [7] worked out at 0.5; in the series with Staphylococcus aureus [8], 0.25; with Staphylococcus aureus [9], 0.25. The result in the series with Pseudomonas aeruginosa [28] was inactive.
With `N=C(N)NCCNc1nc(NCCNC(=N)N)nc(N2CC(Cc3ccccc3)N(c3nc(NCCNC(=N)N)nc(NCCNC(=N)N)n3)CC2Cc2ccccc2)n1` (stereo unspecified), the minimal inhibitory concentration (MIC) is 512 µg/mL in the series on Pseudomonas aeruginosa [29]; 128 µg/mL with Staphylococcus aureus [31]; 8 µg/mL in the series on Pseudomonas aeruginosa [33]; 16 µg/mL in the series on Pseudomonas aeruginosa [34]; 256 µg/mL with Pseudomonas aeruginosa [20]; 16 µg/mL in the series with Pseudomonas aeruginosa [21]. Also, the values for the minimum inhibitory concentration (MIC) with Pseudomonas aeruginosa [41] and in the series on Staphylococcus aureus [10] were 256 µg/mL and 4.8 µM, respectively. Also, the “fractional inhibitory concentration index (FICI)” value in the series on Staphylococcus aureus [30] was determined as 1.25; with Pseudomonas aeruginosa [12], 0.75; in the series on Pseudomonas aeruginosa [39], 0.75. Also, the FIC in the series with Pseudomonas aeruginosa [32] came to 0.25; in the series on Pseudomonas aeruginosa [35] it was 0.5; in the series with Pseudomonas aeruginosa [36], 0.5; with Pseudomonas aeruginosa [37], 0.5; in the series on Staphylococcus aureus [38], 0.25; in the series on Pseudomonas aeruginosa [15], 0.25. Also, the FIC worked out at 0.5 in the series with Pseudomonas aeruginosa [16] and 1 with Staphylococcus aureus [40].
